Test results published in patent US11173177B2, “Compounds for treatment of lipoprotein metabolism disorders” (Aarhus Universitet, priority 2016, dated 2021).
Entries after “also recorded” stand apart in the source; their conditions may differ.

What was measured:
LDLR in HepG2 cells [1] = experiment: LDLR levels in HepG2 cells by Western blotting and densitometry; assay type: cell-based, human
PCSK9 [2] = experiment: Heparin-sepharose binding assay (free PCSK9 by ELISA); set-up: species or system human; settings: 500-250 μg/ml, PCSK9 1 μg/ml, over night 4° C.
Protocol: Compound (X) inhibition of PCSK9 binding to Heparin/Heparan sulfate was tested in a Heparin-sepharose binding assay. Heparin-sepharose beads (2 μl) were incubated with PCSK9 (1 μg/ml) with increasing concentrations of compound (X) (0-500 μg/ml) in a total volume of 150 μl 10 mM NaH2PO4. After over night rotation at 4° C., beads were pelleted and the concentration of non-precipitated PCSK9 (free PCSK9) in supernatant was evaluated by ELISA. The concentration of free PCSK9 in each sample was normalised to the PCSK9 level in a sample without Heparin-sepharose beads (input control). As positive control was included a sample with soluble heparin (5 mg/ml) (FIG. 16 A).
Sucrose octasulfate (FIG. 21A) inhibition of PCSK9 binding to Heparin/Heparan sulfate was tested in a Heparin-sepharose binding assay. Heparin-sepharose beads (2 μl) were incubated with PCSK9 (1 μg/ml) and increasing concentrations of sucrose octasulfate (0-500 μg/ml) in a total volume of 150 μl 10 mM NaH2PO4. After over night rotation at 4° C., beads were pelleted and the concentration of non-precipitated PCSK9 (free PCSK9) in supernatant was evaluated by ELISA). Percent free PCSK9 was calculated with respect to the PCSK9 concentration in a sample without Heparin-sepharose beads (input control) (FIG. 21B).

PCSK9 [3] = experiment: Microscale Thermophoresis (MST) binding to PCSK9; set-up: species or system human; settings: 100 nM labelled PCSK9, PBS+0.05% Tween-20; for Kd: read-out: KD (affinity for PCSK9, MST)
Protocol: Equilibrium binding affinities between PCSK9 and ligands (suramin, dextran sulfate 5000, dextran 5000, pentosan sulfate and S-dC-36) were assessed using Microscale Thermophoresis (MST) (Jerabek-Willemsen et al., 2011). PCSK9 was labeled using the MO-L003 Monolith Blue-NHS labeling kit (NanoTemper Technologies) and a labeling efficiency of 1:1 molar ratio of protein to dye was achieved. PCSK9 was applied at a final concentration of 100 nM. The unlabeled binding partner was titrated in 1:1 dilutions (in PBS+0.05% Tween-20) where the highest concentrations were 15.4 mM for suramin, 2.3 mM for dextran sulfate 5000, 2.3 mM for dextran 5000, 16.3 mM for pentosan sulfate and 250 μM for S-dC-36. MST measurements were performed in standard-treated capillaries (NanoTemper Technologies) on a Monolith NT.115 instrument (NanoTemper Technologies) using 20% LED and 80% MST power. Laser on and off times were 5 s and 35 s, respectively. Negative controls were performed using 100 nM of labelled PCSK9 in MST buffer in all 16 capillaries under the same conditions as mentioned above. Binding curves were obtained from the temperature-jump phase at 80% MST power for suramin, dextran sulfate 5000 and S-dC-36; and from the thermophoresis+temperature-jump phase at 80% MST power for pentosan sulfate. For each binding partner, the sigmoidal dose-response curves were fitted with GraphPad Prism 6 to yield an average KD value.

liver LDLR = experiment: Liver LDLR levels in mice after intravenous PCSK9 injection (Western blot); assay type: in vivo
Protocol: To test the effect of enzymatic removal of heparan sulfate GAGs on PCSK9 activity in vivo 10-12 week-old male BALB6/cJRj mice were infused with heparinase I (30 U) administered through a tail vein catheter 5 min prior injection of PCSK9 (10 μg). In control mice the heparinase injection and/or the PCSK9 injection were replaced with an injection of 0.9% saline. During heparinase infusion, mice were lightly anaesthetized with isoflurane continuously administered through a mask.
Mice (BALB6/cJRj) were subjected to a single intravenous administration (tail vein) of 10 μg human recombinant PCSK9 alone or in combination with heparin (50 U). One hour post injection mice were sacrificed and liver tissues were collected.
Mice (BALB6/cJRj) were subjected to a single intravenous (tail vein) administration of 3.2 μg compound (X) 60 minutes prior injection with PCSK9 (10 μg). PCSK9 induced degradation of liver LDLR was assessed 60 min post PCSK9 injection by Western blotting and quantified by densitometry (FIG. 16 C). Control mice were injected with NaCl or control inhibitor Evolocumab (200 μg), commercially available PCSK9 inhibitory monoclonal antibody (Amgen). LDLR levels were calculated with respect to LDLR level in mice injected with NaCl alone.

HepG2 cells = experiment: Uptake of Bodipy-labeled LDL particles in HepG2 cells; assay type: cell-based, human; settings: suramin 200 μg/ml overnight, then 4 hours 10 ng/ml Bodipy-LDL
Protocol: FIG. 12: Bar graphs showing the relative fluorescence signal in HepG2 cells after overnight incubation with suramin (200 μg/ml) following 4 hours incubation with 10 ng/ml LDL particles labeled with fluorescence dye Bodipy. Inhibition of PCSK9 with suramin increases the uptake of LDL two-fold.

LDLR in HepG2 cells [4] = experiment: LDLR levels in HepG2 cells by Western blotting and densitometry; assay type: cell-based, human; settings: for cellular LDLR, plateau compared to control: dose-dependent increase
Protocol: In the heparin mimetic class of modified polysaccharides compounds dextran sulfate (FIG. 9 A-B) and pentosan (FIG. 9 D-E) were tested in a HepG2 based in vitro cell assay. After overnight incubation LDLR levels were evaluated by Western blotting showing a concentration dependent increase of LDLR upon treatment with dextran sulfate (0-200 μg/ml) with up to 3-fold up regulation of LDLR.
Control cells were incubated without additives (negative control) or 500 μg/ml heparin (positive control). LDLR levels were calculated with respect to the level found in lysate of HepG2 cells incubated without additives.
HepG2 cells were incubated with 0-200 μg/ml of heterogeneously sulfated hexamer or 18-mer oligosaccharides containing on average 1,3 sulfates per disaccharide. After over night incubation cells were harvested and the cellular level of LDLR was analyzed by Western blotting (FIG. 17 A) and quantified by densitometry (FIG. 17 B).

PCSK9 [5] = experiment: BIACORE analysis of PCSK9 binding to heparin-albumin or albumin sensor chips; set-up: species or system human
Protocol: BIACORE analysis using sensor chips coupled with either albumin (Sigma A4503) or heparin-albumin (Sigma H0403) were used to evaluate the interaction between PCSK9 and heparin. […] An interference assay using BIACORE analysis was implemented to assess the binding between compound (X) and PCSK9. Solutions of 100 nM PCSK9 was incubated with increasing concentrations of compound (X) (0 nM, 10 nM, 100 nM, 1 μM and 10 μM), the solutions were then infused over the sensor chip coupled with heparin-albumin.

[6] = oral dose; cited from earlier work
cell surface PCSK9 = experiment: Surface PCSK9 immunostaining of non-permeabilized HepG2 cells stably expressing PCSK9; assay type: cell-based, human; settings: heparinase I 1 h at 37° C.
Protocol: We speculated that HSPG might be involved in the capture of PCSK9. Thus, we treated human hepatocyte-derived HepG2 cells stably expressing PCSK9 with heparinase I. The enzyme heparinase I cleaves heparan sulfate GAG chains at the 1,4 O-linkage between uronic acid and N-acetyl-D-glucosamine, thereby removing cell surface heparan sulfate chains.
HepG2 cells stably transfected with PCSK9 were seeded at 50.000 cells per coverslip and incubated overnight before addition of heparinase I (Sigma Aldrich/H2519) in PBS (0,0002 UN/ml) or PBS alone. Cells were incubated for 1 h. at 37° C., before fixation in 4% paraformaldehyd and immunostaining of non-permeabilized cells with primary and secondary antibodies. Nuclei were visualized with Hoechst dye (Sigma Aldrich). Images were acquired on a Zeiss LSM780.

Molecule: phosphorothioate oligodeoxycytidine [S-dC-36]
- cellular LDLR levels / PCSK9 inhibitory effect (LDLR in HepG2 cells [1]; 0-5.0 μM, 24 hour): potent inhibitory effects; also recorded: concentration dependent increase in cellular receptor levels

Molecule: O=S(=O)(O)OC[C@H]1O[C@@](COS(=O)(=O)O)(O[C@H]2O[C@H](COS(=O)(=O)O)[C@@H](OS(=O)(=O)O)[C@H](OS(=O)(=O)O)[C@H]2OS(=O)(=O)O)[C@@H](OS(=O)(=O)O)[C@@H]1OS(=O)(=O)O [Sucrose octasulfate]
- inhibition of PCSK9 precipitation with Heparin-sepharose (PCSK9 [2]): inhibited PCSK9 precipitation with Heparin-sepharose as well as 5 mg/ml soluble heparin

Molecule: Cc1ccc(C(=O)Nc2ccc(S(=O)(=O)O)c3cc(S(=O)(=O)O)cc(S(=O)(=O)O)c23)cc1NC(=O)c1cccc(NC(=O)Nc2cccc(C(=O)Nc3cc(C(=O)Nc4ccc(S(=O)(=O)O)c5cc(S(=O)(=O)O)cc(S(=O)(=O)O)c45)ccc3C)c2)c1 [suramin]
- Kd (PCSK9 [3]): 190 µM
- level of liver LDLR compared to mice injected with PCSK9 alone (liver LDLR; co-injected with PCSK9 (10 μg), heparin 50 U or suramin 300 μg, 1 hour): significantly higher level of LDLR
- uptake of fluorescently labelled LDL particles (HepG2 cells): increased cellular uptake of fluorescently labelled LDL particles; also recorded: two-fold
- LDLR level compared with cells incubated with statins (LDLR in HepG2 cells [1]; 100 μM, 24 and 48 hours, vs mevastatin and simvastatin): higher level of LDLR
- increase in LDLR (LDLR in HepG2 cells [1]; suramin 0-200 μg/ml, 24 hour): up to fifteen-fold increase in LDLR

Molecule: dextran sulfate
- up regulation of LDLR (LDLR in HepG2 cells [4]; 0-200 μg/ml, overnight): up to 3 fold
- cellular level of LDLR (LDLR in HepG2 cells [4]; 200 μg/ml, 24 hour): potently increase the cellular level of LDLR
- cellular LDLR, plateau compared to control (LDLR in HepG2 cells [4]): around 400%
- Kd (PCSK9 [3]): 180 µM

Molecule: heparin-albumin: heparin-albumin (Sigma H0403) coupled to sensor chip
- Kd (PCSK9 [5]; Example 20 text, read-out: affinity constant of PCSK9 binding): 0.0007 µM

Molecule: albumin: albumin (Sigma A4503) control sensor chip
- PCSK9 binding to control sensor chip (PCSK9 [5]; sensor chip coupled with albumin): no binding was observed

Molecule: dextran
- KD (affinity for PCSK9, MST) (PCSK9 [3]): no affinity for PCSK9

Molecule: pentosan sulfate
- increase in LDLR (LDLR in HepG2 cells [4]; 50-200 μg/ml, 24 hour / overnight): 4 fold
- cellular LDLR, plateau compared to control (LDLR in HepG2 cells [4]): around 400%
- Kd (PCSK9 [3]): 381 µM
- absorption from the digestive tract, median time after ingestion [6]: 2 h

B1: Evolocumab: commercially available PCSK9 inhibitory monoclonal antibody (Amgen) (antibody, chains of the INN, looked up, V domains shown)
VH: EVQLVQSGAEVKKPGASVKVSCKASGYTLTSYGISWVRQAPGQGLEWMGWVSFYNGNTNYAQKLQGRGTMTTDPSTSTAYMELRSLRSDDTAVYYCARGYGMDVWGQGTTVTVSS
VL: ESALTQPASVSGSPGQSITISCTGTSSDVGGYNSVSWYQQHPGKAPKLMIYEVSNRPSGVSNRFSGSKSGNTASLTISGLQAEDEADYYCNSYTSTSMVFGGGTKLTVL
- decrease of liver LDLR level after PCSK9 injection (liver LDLR; inhibitor i.v. 60 min prior PCSK9 (10 μg), compound (X) 0.13 mg/kg, Evolocumab 8 mg/kg, PCSK9 without inhibitor: 50% decrease): no decrease was observed

B2: heparinase I: enzyme that cleaves heparan sulfate GAG chains (Sigma Aldrich/H2519) (protein, UniProt Q05819 22-384, looked up)
Heparin lyase I: QQKKSGNIPYRVNVQADSAKQKAIIDNKWVAVGINKPYALQYDDKLRFNGKPSYRFELKAEDNSLEGYAAGETKGRTELSYSYATTNDFKKFPPSVYQNAQKLKTVYHYGKGICEQGSSRSYTFSVYIPSSFPDNATTIFAQWHGAPSRTLVATPEGEIKTLSIEEFLALYDRMIFKKNIAHDKVEKKDKDGKITYVAGKPNGWKVEQGGYPTLAFGFSKGYFYIKANSDRQWLTDKADRNNANPENSEVMKPYSSEYKTSTIAYKMPFAQFPKDCWITFDVAIDWTKYGKEANTILKPGKLDVMMTYTKNKKPQKAHIVNQQEILIGRNDDDGYYFKFGIYRVGNSTVPVTYNLSGYSETAR
- PCSK9 induced degradation of liver LDLR (liver LDLR; heparinase I (30 U) infused 5 min prior PCSK9 (10 μg), 1 hour): completely protected; also recorded: completely inhibits
- intensity of surface PCSK9 staining (cell surface PCSK9): marked decrease in the intensity of surface PCSK9 staining
